Laboratory results from paper PMC6522510 (Nature Communications, 2019).
Like-named read-outs stand apart in the source and are kept apart here.

Legend:
Design in all cases: species or system AML cell lines (8); Primary HTS, single concentration about 10 uM, Cell Titer Glo viability; log10 luminescence, per cent inhibition relative to cycloheximide control
Details in all cases: 72 h, relative to cycloheximide control, log10 luminescence, inhibitor
CHRF288-11 = test system: CHRF288-11
CMK = test system: CMK
CMS = test system: CMS
M07e = test system: M07e
ML-2 = test system: ML-2
MOLM-13 = test system: MOLM-13
MV4-11 = test system: MV4-11
U937 = test system: U937

SMILES	CHRF288-11 %inh (CHRF288-11; CHRF288-11 %inh, 10 µM) [%]	CMK %inh (CMK; CMK %inh, 10 µM) [%]	CMS %inh (CMS; CMS %inh, 10 µM) [%]	M07e %inh (M07e; M07e %inh, 10 µM) [%]	ML-2 %inh (ML-2; ML-2 %inh, 10 µM) [%]	MOLM-13 %inh (MOLM-13; MOLM-13 %inh, 10 µM) [%]	MV4-11 %inh (MV4-11; MV4-11 %inh, 10 µM) [%]	U937 %inh (U937; U937 %inh, 10 µM) [%]	CHRF288-11 %inh (CHRF288-11) [%]	CMK %inh (CMK) [%]	CMS %inh (CMS) [%]	M07e %inh (M07e) [%]	ML-2 %inh (ML-2) [%]	MOLM-13 %inh (MOLM-13) [%]	MV4-11 %inh (MV4-11) [%]	U937 %inh (U937) [%]
Nc1ncnc2occ(-c3ccc(NC(=O)Nc4cc(C(F)(F)F)ccc4F)cc3)c12 [SJ000573048-2, CL210513-029A3 | T299/89/1 | YF46626-103A2]	5.114	82.88	10.62	28.03	4.549	99.82	78.92	50.36								
Cc1cc(O)cc(C)c1/C=C/c1cncc(-c2nn[nH]n2)c1 [SJ000573052-1, T252/80/1]									-3.388	-5.146	-2.3	-1.115	-1.281	-1.521	-3.299	-3.239
CN(C)C(=O)O[C@H]1CN[C@H](C#Cc2cc3ncnc(Nc4ccc(OCc5cccc(F)c5)c(Cl)c4)c3s2)C1 [SJ000573053-1, U20298/139/1 | U20747/39/1]									65.04	-4.087	2.516	1.476	5.015	-0.949	4.747	-0.4617
CN(C)C(=O)O[C@@H]1CN[C@@H](C#Cc2cc3ncnc(Nc4ccc(OCc5cccc(F)c5)c(Cl)c4)c3s2)C1 [SJ000573053-2, U20298/139/1 | U20747/39/1]									39.41	-4.505	4.277	-1.206	1.706	-3.067	-0.77	3.489
COc1cccc(-n2cnc3c(N/N=C/c4ccncc4)ncnc32)c1 [SJ000573055-1, U17791/62/2]									0.9652	9.137	0.1507	2.779	-0.9344	29.19	22.16	6.107
CN1CCN(C(=O)c2ccc(NC(=O)Nc3ccc(N(C)c4ccnc(Nc5ccc(CS(C)(=O)=O)cc5)n4)cc3)cc2)CC1 [SJ000573056-1, U17983/92/5]									0.03637	6.346	-2.808	-6.05	10.8	94.26	82.16	5.393
Cc1ccc2c(-c3ccnc(Nc4cccc(C(F)(F)F)c4)n3)c(-c3ccccc3)nn2n1 [SJ000573057-1, U18020/146/1]									-3.995	8.756	10.95	0.344	9.435	-0.1836	9.271	5.106
COc1cc(C=NNc2ncnc3c2cnn3Cc2ccccc2)ccc1O [SJ000573058-1, T237/25/8]									-7.429	-3.542	-1.754	-2.447	0.3051	-1.629	-3.195	-2.319
COc1ccc(C2=C(N3CCc4ccccc43)C(=O)NC2=O)cc1 [SJ000573061-1, DH97836-162A1]									16.97	1.284	1.472	1.612	4.148	-1.299	5.926	9.443
CCc1cccc(CC)c1/C=C/c1cncc(C(=O)NC)c1 [SJ000573062-1, U12068/83/1]									36.66	82.75	0.8952	15.2	7.466	18.25	-0.1109	29.57
COc1cc(Nc2ncc3c(C)nc(-c4cccc(Oc5ccccc5)c4)n3n2)cc(OC)c1OC [SJ000573063-1, U19891/44/1]									8.926	25.77	22.07	11.27	2.68	53.84	46.32	10.08
CCN1CCC(CC(=O)Nc2n[nH]c3nnc(-c4cccc(F)c4F)cc23)CC1 [SJ000573064-1, VB101259-076A3]									30.8	96.65	104.4	13.75	6.747	13.03	39.53	13.36
Cn1cc(C=C2C(=O)Nc3cccnc32)c2ccccc21 [SJ000573065-1, U14362/24/1 | GW-441756 | GW441756]									-4.894	2.086	-3.947	-6.294	-1.442	21.32	36.15	-3.233
NCc1ccc(-n2c(-c3nonc3N)nc3cnccc32)cc1 [SJ000573066-1, CP100101-172A1]									11.55	18.18	11.21	5.233	11.91	27.71	62.53	21.07
O=C(Nc1n[nH]c2cc(-c3ccccc3)ccc12)C1CC1 [SJ000573067-1, VB100064-117A1]									40.96	85.27	3.176	17.84	19.77	40.31	0.9726	46.5
Cc1cc(O)cc(C)c1/C=C/c1cncc(C(N)=O)c1 [SJ000573068-1, U11805/173/2]									44.74	90.65	51.62	72.97	51.45	75.99	70.37	80.88
CNC(=O)c1cncc(/C=C/c2ccccc2C)c1 [SJ000573069-1, U12068/59/1]									-2.201	-3.696	0.1448	4.224	-0.01519	-1.542	-0.4269	-1.047
CNC(=O)c1cncc(/C=C/c2ccccc2Cl)c1 [SJ000573070-1, U12068/61/1]									33.2	93.63	-0.2342	31.9	26.34	4.101	-1.892	0.1459
CS(=O)(=O)CCNCc1nc(-c2ccc3ncnc(Nc4ccc(OCc5cccc(C(F)(F)F)c5)cc4)c3c2)cs1 [SJ000573071-1, U14859/60/2]									-1.328	3.287	1.221	1.42	1.048	70.81	64.74	0.6329
c1ccc(Nc2ncc(-c3ccccc3)o2)cc1 [SJ000573072-1, U13103/99/1]									2.769	6.254	-0.2616	-2.471	3.842	84.62	59.12	3.569
COc1ccc(-c2nn3ncccc3c2-c2ccnc(Nc3ccc(Cl)c(C(F)(F)F)c3)n2)cc1 [SJ000573073-1, U17838/183/2]									1.294	3.073	0.1387	-2.862	-1.529	-0.8658	3.163	0.7639
